Assay: Plasma protein binding (ultrafiltration of plasma after tracer injection)
Type: in vivo, Sprague Dawley rats
Settings: 15 min after injection, 30 kDa ultrafiltration, n = 3
Procedure: After 15 min, the animals were sacrificed and the blood was collected into Li-heparin tubes and centrifuged (3000×g, 10 min). A 10-μl aliquot of the plasma was spotted onto a TLC plate; following this, the remaining plasma was filtered by ultrafiltration using Microsep 30K Omega (Pall Life Sciences, Mexico) with a cut-off of 30 kDa. A 10-μl aliquot of the resulting supernatant was also spotted onto the TLC plate. The plates were exposed onto an imaging plate (Fuji BAS Imaging Plate TR2025, Fuji Photo Film Co., Ltd., Tokyo, Japan) for approximately two half-lives of fluorine-18 (3.5 to 4 h). After the exposure, the imaging plates were scanned using a BAS-5000 reader (Fuji, Japan) with a resolution of 50 μm and the saved images were analyzed using TINA software (version 2.10 g, Raytest, Isotopenmessgeräte, GmbH, Straubenhardt, Germany).

CCN(CC)C(=O)Cc1c(-c2ccc([18F])cc2)nn2c(C)cc(C)nc12 [[^18F]F-DPA]
Fraction of radioactivity unbound to the plasma proteins: 6.6 ± 3.1%

Reference: PMC5574958, “Radiosynthesis and Preclinical Evaluation of [^18F]F-DPA, A Novel Pyrazolo[1,5a]pyrimidine Acetamide TSPO Radioligand, in Healthy Sprague Dawley Rats” (Molecular Imaging and Biology, 2017)
